Data reported in patent publication US12685312B2, “Sulfonamide apyrase inhibitors” (Texas Crop Science, Inc., priority 2022, dated 2026).

System: apyrase
Assay: Screen for apyrase inhibitors (Method 1, in vitro phosphate-release absorbance assay)
Format: biochemical
Conditions: inhibitor conc at 1 mM stock, 1 hr room temperature, absorbance 630 nm; rounded average of two assay results
Outline: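 Phosphate-release colorimetric assay (Windsor method) in 60 mM Hepes, 3 mM MgCl2, 3 mM CaCl2, 3 mM ATP, pH 6.5, with compound or DMSO control added. Released phosphate developed with ammonium molybdate and ascorbic acid/TCA, then stopped with citrate/acetic acid.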

Row | % Inhibition of Apyrase [%] | SMILES
1 | 77 | CN(c1ccccc1)S(=O)(=O)c1ccccc1C(=O)Nc1ccc2c(c1)OCO2 [I-809, N-(benzo[d][1,3]dioxol-5-yl)-2-(N-methyl-N-phenylsulfamoyl)benzamide]
2 | 75 | CN(c1ccccc1)S(=O)(=O)c1ccccc1C(=O)N1CCCc2ccccc21 [I-810, N-methyl-N-phenyl-2-(1,2,3,4-tetrahydroquinoline-1-carbonyl)benzenesulfonamide]
3 | 74 | CN(c1ccccc1)S(=O)(=O)c1ccccc1C(=O)Nc1ccc(C#N)cc1 [I-811, N-(4-cyanophenyl)-2-(N-methyl-N-phenylsulfamoyl)benzamide]
4 | 54 | O=C1Cc2cccc(NS(=O)(=O)c3ccc(Br)cc3)c2N1 [I-812, 4-bromo-N-(2-oxoindolin-7-yl)benzenesulfonamide]
5 | 44 | O=C(Nc1cc(Cl)ccc1NS(=O)(=O)c1ccccc1F)c1ccc2c(c1)OCO2 [I-813, N-(5-chloro-2-((2-fluorophenyl)sulfonamido)phenyl)benzo[d][1,3] dioxole-5-carboxamide]
6 | 39 | CN(c1ccccc1)S(=O)(=O)c1ccccc1C(=O)Nc1cccc(C(N)=O)c1 [I-814, N-(3-carbamoylphenyl)-2-(N-methyl-N-phenylsulfamoyl)benzamide]
7 | 37 | CN(C(=O)c1ccccc1S(=O)(=O)N(C)c1ccccc1)c1ccccc1 [I-815, N-methyl-2-(N-methyl-N-phenylsulfamoyl)-N-phenylbenzamide]
8 | 29 | CN(c1ccccc1)S(=O)(=O)c1ccccc1C(=O)Nc1ccc(C(N)=O)cc1 [I-816, N-(4-carbamoylphenyl)-2-(N-methyl-N-phenylsulfamoyl)benzamide]
9 | 64 | Cc1ccc(C(=O)Nc2ccccc2S(=O)(=O)Nc2ccccc2)cc1F [I-817, 3-fluoro-4-methyl-N-(2-(N-phenylsulfamoyl)phenyl)benzamide]
10 | 60 | COc1ccc(NS(=O)(=O)c2cc(C)ccc2NC(=O)c2cc(C)oc2C)cc1 [I-818, N-(2-(N-(4-methoxyphenyl)sulfamoyl)-4-methylphenyl)-2,5-dimethylfuran-3-carboxamide]
11 | 57 | CCOc1ccc(NS(=O)(=O)c2c(C)cccc2NC(=O)c2ccccc2OC)cc1 [I-820, N-(2-(N-(4-ethoxyphenyl)sulfamoyl)-3-methylphenyl)-2-methoxybenzamide]
12 | 56 | CCOc1ccc(NS(=O)(=O)c2c(C)cccc2NC(=O)c2ccc(Cl)cc2)cc1 [I-821, 4-chloro-N-(2-(N-(4-ethoxyphenyl)sulfamoyl)-3-methylphenyl)benzamide]
13 | 54 | COc1ccc(NC(=O)c2cccc(S(=O)(=O)N3CC(C)CC(C)C3)c2)c(S(=O)(=O)Nc2ccccc2Cl)c1 (stereo not drawn) [I-822, N-(2-(N-(2-chlorophenyl)sulfamoyl)-4-methoxyphenyl)-3-((3,5-dimethylpiperidin-1-yl)sulfonyl)benzamide]
14 | 53 | Cc1ccc(NC(=O)c2sccc2C)c(S(=O)(=O)Nc2ccc(I)cc2)c1 [I-823, N-(2-(N-(4-iodophenyl)sulfamoyl)-4-methylphenyl)-3-methylthiophene-2-carboxamide]
15 | 52 | CN(C1CCCCC1)S(=O)(=O)c1ccccc1NC(=O)c1c(F)cccc1F [I-824, N-(2-(N-cyclohexyl-N-methylsulfamoyl)phenyl)-2,6-difluorobenzamide]
16 | 48 | CCOc1ccc(NS(=O)(=O)c2c(C)cccc2NC(=O)c2ccc(Oc3ccccc3)cc2)cc1 [I-825, N-(2-(N-(4-ethoxyphenyl)sulfamoyl)-3-methylphenyl)-4-phenoxybenzamide]
17 | 39 | COc1ccc(NS(=O)(=O)c2cc(OC)ccc2NC(=O)c2c(OC)cccc2OC)cc1 [I-827, 2,6-dimethoxy-N-(4-methoxy-2-(N-(4-methoxyphenyl)sulfamoyl)phenyl)benzamide]
18 | 65 | O=C(Nc1ccccc1NS(=O)(=O)c1cccs1)c1cccc(Cl)c1 [I-828, 3-chloro-N-(2-(thiophene-2-sulfonamido)phenyl)benzamide]
19 | 63 | O=C1CN(S(=O)(=O)c2ccc(Cl)cc2)c2ccccc2N1 [I-829, 4-((4-chlorophenyl)sulfonyl)-3,4-dihydroquinoxalin-2(1H)-one]
20 | 60 | O=C(Nc1ccccc1NS(=O)(=O)c1cccs1)c1ccc(Br)cc1 [I-830, 4-bromo-N-(2-(thiophene-2-sulfonamido)phenyl)benzamide]
21 | 59 | COc1ccc([N+](=O)[O-])cc1S(=O)(=O)Nc1ccccc1NC(=O)c1ccc(C(C)(C)C)cc1 [I-831, 4-(tert-butyl)-N-(2-((2-methoxy-5-nitrophenyl)sulfonamido)phenyl)benzamide]
22 | 58 | O=C(Nc1ccccc1NS(=O)(=O)c1cccs1)c1ccc(Cl)cc1 [I-832, 4-chloro-N-(2-(thiophene-2-sulfonamido)phenyl)benzamide]
23 | 58 | O=C(Nc1ccccc1NS(=O)(=O)c1ccc(F)cc1)c1cccc(S(=O)(=O)C(F)(F)F)c1 [I-833, N-(2-((4-fluorophenyl)sulfonamido)phenyl)-3-((trifluoromethyl)sulfonyl)benzamide]

Row | % Inhibition of Apyrase [%] | SMILES
24 | 54 | O=C(Nc1cc(Cl)ccc1NS(=O)(=O)c1ccccc1F)c1ccc(NC(=O)C2CC2)cc1 [I-834, N-(5-chloro-2-((2-fluorophenyl)sulfonamido)phenyl)-4-(cyclopropanecarboxamido)benzamide]
25 | 52 | O=C(Nc1ccccc1NS(=O)(=O)c1cccs1)c1cc(Br)ccc1F [I-835, 5-bromo-2-fluoro-N-(2-(thiophene-2-sulfonamido)phenyl)benzamide]
26 | 49 | O=C(Nc1ccccc1NS(=O)(=O)c1cccs1)c1ccc(C(F)(F)F)cc1 [I-836, N-(2-(thiophene-2-sulfonamido)phenyl)-4-(trifluoromethyl)benzamide]
27 | 35 | O=C(Nc1ccccc1NS(=O)(=O)c1cccs1)c1ccc(Cl)cc1F [I-837, 4-chloro-2-fluoro-N-(2-(thiophene-2-sulfonamido)phenyl)benzamide]
28 | 29 | CC(C)(C)c1ccc(C(=O)Nc2ccccc2NS(=O)(=O)c2cccc(S(N)(=O)=O)c2)cc1 [I-838, 4-(tert-butyl)-N-(2-((3-sulfamoylphenyl)sulfonamido)phenyl) benzamide]
29 | 23 | O=C(Nc1ccccc1NS(=O)(=O)c1ccc(F)cc1)c1ccc(Cl)cc1 [I-839, 4-chloro-N-(2-((4-fluorophenyl)sulfonamido)phenyl)benzamide]
30 | 18 | O=C(Nc1ccccc1NS(=O)(=O)c1cccs1)c1cc(Cl)ccc1F [I-840, 5-chloro-2-fluoro-N-(2-(thiophene-2-sulfonamido)phenyl)benzamide]
31 | 8 | O=C(Nc1ccccc1NS(=O)(=O)c1ccc2oc(=O)ccc2c1)c1ccc(Cl)cc1 [I-841, 4-chloro-N-(2-((2-oxo-2H-chromene)-6-sulfonamido)phenyl)benzamide]
32 | 5 | O=C1CCCN1c1ccccc1NS(=O)(=O)c1ccc(Br)cc1 [I-842, 4-bromo-N-(2-(2-oxopyrrolidin-1-yl)phenyl)benzenesulfonamide]
33 | 5 | O=C1Cc2cc(S(=O)(=O)Nc3ccccc3NC(=O)c3ccc(Cl)cc3)ccc2N1 [I-843, 4-chloro-N-(2-((2-oxoindoline)-5-sulfonamido)phenyl)benzamide]
34 | 5 | O=C1Cc2cccc(NS(=O)(=O)c3ccc(Cl)cc3)c2N1 [I-844, 4-chloro-N-(2-oxoindolin-7-yl)benzenesulfonamide]
35 | 1 | O=C(Nc1cc(Cl)ccc1NS(=O)(=O)c1ccccc1F)c1ccccc1 [I-845, N-(5-chloro-2-((2-fluorophenyl)sulfonamido)phenyl)benzamide]
36 | 82 | Cc1cccc(NS(=O)(=O)c2ccc(C(=O)Nc3cccc(C#N)c3)cc2)c1C [I-855, N-(3-cyanophenyl)-4-(N-(2,3-dimethylphenyl)sulfamoyl)benzamide]
37 | 76 | CC1Cc2ccccc2N1C(=O)c1ccc(S(=O)(=O)Nc2ccccc2)cc1 (stereo not drawn) [I-857, 4-(2-methylindoline-1-carbonyl)-N-phenylbenzenesulfonamide]
38 | 76 | COc1ccc2c(c1)CCCN2C(=O)c1ccc(S(=O)(=O)Nc2ccc(F)cc2)cc1 [I-858, N-(4-fluorophenyl)-4-(6-methoxy-1,2,3,4-tetrahydroquinoline-1-carbonyl)benzenesulfonamide]
39 | 72 | Cc1ccc(NC(=O)c2ccc(C(=O)Nc3ccc(C)cc3)cc2)cc1 [I-859, N1,N4-di-p-tolylterephthalamide]
40 | 71 | O=C(c1ccc(S(=O)(=O)Nc2ccccc2)cc1)N1CCc2ccccc21 [I-860, 4-(indoline-1-carbonyl)-N-phenylbenzenesulfonamide]
41 | 68 | CSc1cccc(NC(=O)c2ccc(C(=O)Nc3cccc(SC)c3)cc2)c1 [I-861, N1,N4-bis(3-(methylthio)phenyl)terephthalamide]
42 | 61 | Cc1ccc(NS(=O)(=O)c2ccc(C(=O)Nc3ccc(C)cc3Br)cc2)cc1 [I-862, N-(2-bromo-4-methylphenyl)-4-(N-(p-tolyl)sulfamoyl)benzamide]
43 | 59 | Cc1ccc(Cl)cc1NC(=O)c1ccc(S(=O)(=O)N2CCCc3ccccc32)cc1 [I-863, N-(5-chloro-2-methylphenyl)-4-((3,4-dihydroquinolin-1(2H)-yl)sulfonyl)benzamide]
44 | 59 | CC(C)c1ccc(NC(=O)c2ccc(S(=O)(=O)N3CCCc4ccccc43)cc2)cc1 [I-864, 4-((3,4-dihydroquinolin-1(2H)-yl)sulfonyl)-N-(4-isopropylphenyl)benzamide]
45 | 59 | CN(c1ccccc1)S(=O)(=O)c1ccc(C(=O)N2CCc3ccccc32)cc1 [I-865, 4-(indoline-1-carbonyl)-N-methyl-N-phenylbenzenesulfonamide]
